{
  "source": "paper PMC12376458",
  "about": "“Multi-omics analysis reveals ACOT1 as the key target of piperine in Piper Longum-mediated gastric cancer treatment” (Chinese Medicine, 2025)",
  "target": "T1, ACOT1 (Acyl-CoA Thioesterase 1) (Homo sapiens, UniProt Q86TX2)",
  "T1 construct": "endogenous protein in NP-40 cell lysate, western blot read-out; mouse MFC used for xenograft",
  "T1 sequence (Q86TX2 2-421)": "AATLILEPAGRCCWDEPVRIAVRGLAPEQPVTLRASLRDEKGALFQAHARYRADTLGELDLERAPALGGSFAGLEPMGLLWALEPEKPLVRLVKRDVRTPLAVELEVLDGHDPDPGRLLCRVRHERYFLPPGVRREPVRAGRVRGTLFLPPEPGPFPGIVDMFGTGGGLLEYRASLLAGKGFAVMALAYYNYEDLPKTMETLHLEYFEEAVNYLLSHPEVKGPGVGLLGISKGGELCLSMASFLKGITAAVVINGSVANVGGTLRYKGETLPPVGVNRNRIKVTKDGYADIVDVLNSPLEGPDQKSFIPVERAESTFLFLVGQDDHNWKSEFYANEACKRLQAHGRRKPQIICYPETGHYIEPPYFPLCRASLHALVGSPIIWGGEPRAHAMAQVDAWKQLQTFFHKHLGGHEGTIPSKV",
  "assay": "cellular thermal shift assay (CETSA) in cell lysate, western blot",
  "assay_type": "biochemical",
  "settings": "60 μM piperine vs DMSO, 4 °C 5 h, then 35–60 °C for 3 min",
  "data": [
    {"smiles": "O=C(/C=C/C=C/c1ccc2c(c1)OCO2)N1CCCCC1", "note": "[piperine]", "values": [
      {"measurement": "cellular thermal shift assay (CETSA) in cell lysate, western blot", "result": "CETSA experimental results showed that piperine treatment enhanced the thermal stability of ACOT1"}
    ]}
  ]
}
